In patent US11945787B2, “Substituted imidazoles for preventing and/or treating cell or tissue necrosis” (Ela Pharma Ltd, priority 2015, dated 2024):

Columns and labels:
U-937 cells = assay: siRNA transfection, KCN-induced necrosis of U-937 cells, LDH release; format: cell-based, human; settings: U-937, 7 hours KCN; FIG. 4A
PC12 cells = assay: siRNA transfection, KCN-induced necrosis of PC12 cells, LDH release; format: cell-based, rat; settings: PC12, 5 hours KCN; FIG. 4C
Cathepsin C = Cathepsin C activity in lysates of siRNA-treated cells exposed to KCN; format: cell-based; settings: KCN 10 mM 30 minutes; FIG. 5B
elastase-like activity = assay: Elastase-like activity in lysates of siRNA-treated cells exposed to KCN; format: cell-based; settings: KCN 10 mM 30 minutes; FIG. 5A

Substance | protection against KCN-induced necrosis, LDH release (U-937 cells) | protection against cyanide induced cell death, LDH release (PC12 cells) | Cathepsin C activity of cell lysates (Cathepsin C) | elastase-like activity of cell lysates (elastase-like activity)
siRNA for Cathepsin C: siRNA for Cathepsin C silencing, ATGATCTGCATCAGTTGTAAA (SEQ ID NO: 1), Qiagen (listed as DNA, chemistry not given here) | protective effect | significant protective effect | stable and significant decrease | –
siRNA for CELA3A: siRNA for CELA3A, CTGCCTTTGGCTGCAACTTCA (SEQ ID NO: 3), Qiagen (listed as DNA, chemistry not given here) | partial protection | significant protective effect | no effect | stable and significant decrease
siRNA for CELA1: siRNA for CELA1, CGGCAACATGCTGGTCCTTTA (SEQ ID NO: 2), Qiagen (listed as DNA, chemistry not given here) | partial protection | significant protective effect | no effect | stable and significant decrease
